Values of other authors as cited in patent publication US20220000833A1, “COMPOSITIONS AND METHODS FOR TREATING O[…] APNEA” (THERAPIX BIOSCIENCES LTD., priority 2018, published 2022).

Tests used:
patients = conditions: more than 40 years of clinical research, around 6000 patients, 300-1200 mg a day up to two months

CCCCCCCCCCCCCCCC(=O)NCCO [PEA, N-(2-hydroxyethyl)hexadecanamide]
safety / side effects in clinical research (patients): no side effects has ever been reported

CCCCCc1cc(O)c2c(c1)OC(C)(C)[C@@H]1CCC(C)=C[C@@H]21 [Dronabinol, (−)-Trans-Δ9-tetrahydrocannabinol]
hypothesized lethal dose in humans (humans; based on rat studies): 30 mg/kg | dose at which serious Dronabinol-associated adverse events in humans have been reported (humans; humans): 0.4 mg/kg | estimated lethal dose in humans (humans; intravenous): 30 mg/kg
